Measured values reported in patent US20080199847A1, “Method for Predicting the Metabolism of Drug in Human Liver and Liver Function” (Daiichi Pure Chemicals Co., Ltd., priority 2004, published 2008).
“And” between values parts separate entries of the source, which are not always exact repeats. Equal entries are not always repeated.

Assay: Radioactivity levels of tissue and plasma samples two hours after administration
Conditions: 5 mg/kg iv
Method: Chimeric mice from PhoenixBio Co., Ltd. were employed.
The pH of the solution was adjusted to 7.0 with a 0.1% aqueous citric acid solution, and the concentration was adjusted to 1 mg/mL with distilled water for injection. The liquid was bolus-administered at 5 mL/kg to the caudal vein of the mice (5 mg/5 mL/kg).
Livers and kidneys were taken from other mice two hours after administration, following sacrificing through exsanguination. Blood plasma was collected by sampling blood through the orbital venousplexus and centrifuging it. Bile was collected from the chimeric mice and the control mice through bile duct cannulation until 72 hours after administration.
Radioactivity of each sample was determined by use of a liquid scintillator (Hionic-flow, product of Perkin-Elmer) with Tri-Carb 2500 (Perkin-Elmer) as a liquid scintillation counter. The measurement was performed for two minutes.
In analysis of blood plasma, bile, and urine, the sample (10 μL) was collected in a 20-mL glass vial, added Hionic-flow (10 mL), and the mixture was analyzed.
In analysis of tissue samples (liver and kidney), an amount 3-fold (by weight) of acetate buffer (0.1M, pH3.0) was added to each sample, and the mixture was homogenized with a polytron-homogenizer. An aliquot (50 μL) of the homogenate was solubilized with 2 mL of Soluene 350 (Perkin-Elmer), added Hionic-flow (10 mL), and the mixture was analyzed.

What does the source list for CC(C(=O)O)c1cccc(C(=O)c2ccccc2)c1 (centres unmarked) [ketoprofen, Ketoprofen]?
Concentration (radioactivity level), kidney (chimeric mice): 5.03±1.25 μg eq./mL and 5.03 μg eq./mL; Concentration (radioactivity level), kidney (control mice): 4.70±0.61 μg eq./mL and 4.70 μg eq./mL
